Assay results reported in ChEMBL document CHEMBL5465560, “Selectivity Literature for EUbOPEN Chemogenomic Library” (2024).

Legend:
[1] = molecular target: T1, G protein-coupled receptor kinase 3 (Homo sapiens) (UniProt P35626); test: Selectivity interaction (KinomeScan (DiscoverX)) EUB0001049a ADRBK2; conditions: at 1 µM
T1 sequence (whole entry): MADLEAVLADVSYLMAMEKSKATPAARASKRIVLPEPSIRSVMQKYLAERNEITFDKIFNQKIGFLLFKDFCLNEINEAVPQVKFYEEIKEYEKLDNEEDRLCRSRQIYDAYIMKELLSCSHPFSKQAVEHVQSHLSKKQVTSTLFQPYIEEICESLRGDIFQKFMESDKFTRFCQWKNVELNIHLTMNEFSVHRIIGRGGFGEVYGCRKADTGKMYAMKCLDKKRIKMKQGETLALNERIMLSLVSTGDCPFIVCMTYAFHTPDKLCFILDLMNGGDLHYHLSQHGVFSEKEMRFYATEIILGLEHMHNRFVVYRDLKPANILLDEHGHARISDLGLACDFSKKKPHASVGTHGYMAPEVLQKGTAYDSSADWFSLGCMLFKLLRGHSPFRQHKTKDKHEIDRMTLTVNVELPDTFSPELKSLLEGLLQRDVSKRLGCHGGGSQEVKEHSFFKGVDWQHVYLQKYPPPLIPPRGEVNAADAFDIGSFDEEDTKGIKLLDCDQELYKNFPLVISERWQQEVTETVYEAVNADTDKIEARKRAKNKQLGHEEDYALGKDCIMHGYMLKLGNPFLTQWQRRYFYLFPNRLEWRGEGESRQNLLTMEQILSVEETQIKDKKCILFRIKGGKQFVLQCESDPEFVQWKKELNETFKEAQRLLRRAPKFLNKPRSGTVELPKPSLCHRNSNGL

[2] = molecular target: Serine/threonine-protein kinase OSR1 (Homo sapiens) (UniProt O95747); test: Selectivity interaction (KinomeScan (DiscoverX)) EUB0000092b OXSR1; conditions: at 10 µM
Sequence of Serine/threonine-protein kinase OSR1 (Homo sapiens) (O95747 2-527 limits assumed): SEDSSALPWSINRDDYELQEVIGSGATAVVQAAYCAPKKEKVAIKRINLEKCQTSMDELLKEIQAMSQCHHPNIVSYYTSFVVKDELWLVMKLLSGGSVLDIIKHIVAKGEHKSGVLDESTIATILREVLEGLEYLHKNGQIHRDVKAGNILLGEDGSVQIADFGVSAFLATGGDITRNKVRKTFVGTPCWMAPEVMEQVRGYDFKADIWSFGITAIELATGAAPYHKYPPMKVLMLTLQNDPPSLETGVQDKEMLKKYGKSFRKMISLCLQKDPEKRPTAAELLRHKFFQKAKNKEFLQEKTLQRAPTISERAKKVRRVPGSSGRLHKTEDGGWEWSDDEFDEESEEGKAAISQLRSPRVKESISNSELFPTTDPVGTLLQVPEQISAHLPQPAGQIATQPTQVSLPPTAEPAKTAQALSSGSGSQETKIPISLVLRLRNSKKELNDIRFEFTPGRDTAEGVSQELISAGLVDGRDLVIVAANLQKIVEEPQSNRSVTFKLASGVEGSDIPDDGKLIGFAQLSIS

[3] = molecular target: T2, Calcium/calmodulin-dependent protein kinase type IV (Homo sapiens) (UniProt Q16566); test: Selectivity interaction (Kinase screening (Upstate/Millipore)) EUB0000604a CAMK4
T2 sequence (whole entry): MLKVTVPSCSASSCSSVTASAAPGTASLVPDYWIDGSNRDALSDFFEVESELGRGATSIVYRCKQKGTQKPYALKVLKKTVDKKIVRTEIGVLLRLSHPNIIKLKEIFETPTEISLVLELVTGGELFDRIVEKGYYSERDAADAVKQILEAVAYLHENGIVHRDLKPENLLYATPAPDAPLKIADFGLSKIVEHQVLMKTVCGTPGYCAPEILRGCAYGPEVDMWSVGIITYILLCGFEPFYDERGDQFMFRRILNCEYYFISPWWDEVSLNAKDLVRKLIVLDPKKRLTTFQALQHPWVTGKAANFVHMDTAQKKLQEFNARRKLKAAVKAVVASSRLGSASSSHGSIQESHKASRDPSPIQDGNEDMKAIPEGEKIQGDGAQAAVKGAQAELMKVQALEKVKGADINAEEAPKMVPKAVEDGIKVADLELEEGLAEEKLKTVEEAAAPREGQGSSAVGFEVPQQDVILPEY

[4] = molecular target: Death-associated protein kinase 2 (Homo sapiens) (UniProt Q9UIK4); test: Selectivity interaction (Ambit KINOMEscan and KiNATiv profiling in Jurkat cells) EUB0000090b DAPK2; type: cell-based; conditions: at 1 µM
Sequence of Death-associated protein kinase 2 (Homo sapiens) (Q9UIK4 whole entry, looked up): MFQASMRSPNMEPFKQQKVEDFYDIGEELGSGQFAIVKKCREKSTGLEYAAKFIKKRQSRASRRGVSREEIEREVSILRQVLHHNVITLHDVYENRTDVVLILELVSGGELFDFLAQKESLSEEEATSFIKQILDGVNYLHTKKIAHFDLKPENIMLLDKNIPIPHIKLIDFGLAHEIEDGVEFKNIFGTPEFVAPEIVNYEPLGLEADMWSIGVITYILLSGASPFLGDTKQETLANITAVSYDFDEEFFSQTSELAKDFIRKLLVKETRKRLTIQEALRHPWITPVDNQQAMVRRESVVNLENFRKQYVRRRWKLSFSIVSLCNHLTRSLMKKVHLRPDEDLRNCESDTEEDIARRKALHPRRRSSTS

[5] = molecular target: T3, Serine/threonine-protein kinase ULK3 (Homo sapiens) (UniProt Q6PHR2); test: Selectivity interaction (KinomeScan (DiscoverX)) EUB0000695a ULK3; conditions: at 100 nM
T3 sequence (whole entry): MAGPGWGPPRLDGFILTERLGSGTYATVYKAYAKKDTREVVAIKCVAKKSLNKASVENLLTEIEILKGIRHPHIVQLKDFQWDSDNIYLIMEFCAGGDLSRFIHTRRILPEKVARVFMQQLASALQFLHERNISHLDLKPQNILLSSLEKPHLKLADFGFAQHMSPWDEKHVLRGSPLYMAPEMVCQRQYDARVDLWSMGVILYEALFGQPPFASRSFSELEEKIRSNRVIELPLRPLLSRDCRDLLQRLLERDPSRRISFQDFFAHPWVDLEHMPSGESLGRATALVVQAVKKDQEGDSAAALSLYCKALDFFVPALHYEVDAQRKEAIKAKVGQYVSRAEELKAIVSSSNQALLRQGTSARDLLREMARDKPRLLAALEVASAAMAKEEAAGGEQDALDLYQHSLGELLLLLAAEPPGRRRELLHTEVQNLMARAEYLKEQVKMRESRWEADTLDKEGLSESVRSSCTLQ

[6] = molecular target: Serine/threonine-protein kinase Nek7 (Homo sapiens) (UniProt Q8TDX7); test: Selectivity interaction (KinomeScan (DiscoverX)) EUB0000607a NEK7; conditions: at 10 µM
Sequence of Serine/threonine-protein kinase Nek7 (Homo sapiens) (Q8TDX7 whole entry, looked up): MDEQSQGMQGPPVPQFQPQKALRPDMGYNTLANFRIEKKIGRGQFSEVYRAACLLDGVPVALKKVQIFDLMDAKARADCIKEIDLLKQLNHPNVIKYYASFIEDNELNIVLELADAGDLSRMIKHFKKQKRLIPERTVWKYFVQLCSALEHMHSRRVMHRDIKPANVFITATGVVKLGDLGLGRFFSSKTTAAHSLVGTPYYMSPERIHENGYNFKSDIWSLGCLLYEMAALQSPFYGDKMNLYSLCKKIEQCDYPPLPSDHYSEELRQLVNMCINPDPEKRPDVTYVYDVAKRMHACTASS

[7] = molecular target: T4, Serine/threonine-protein kinase STK11 (Homo sapiens) (UniProt Q15831); test: Selectivity interaction (KinomeScan (DiscoverX)) EUB0000607a STK11; conditions: at 10 µM
T4 sequence (whole entry): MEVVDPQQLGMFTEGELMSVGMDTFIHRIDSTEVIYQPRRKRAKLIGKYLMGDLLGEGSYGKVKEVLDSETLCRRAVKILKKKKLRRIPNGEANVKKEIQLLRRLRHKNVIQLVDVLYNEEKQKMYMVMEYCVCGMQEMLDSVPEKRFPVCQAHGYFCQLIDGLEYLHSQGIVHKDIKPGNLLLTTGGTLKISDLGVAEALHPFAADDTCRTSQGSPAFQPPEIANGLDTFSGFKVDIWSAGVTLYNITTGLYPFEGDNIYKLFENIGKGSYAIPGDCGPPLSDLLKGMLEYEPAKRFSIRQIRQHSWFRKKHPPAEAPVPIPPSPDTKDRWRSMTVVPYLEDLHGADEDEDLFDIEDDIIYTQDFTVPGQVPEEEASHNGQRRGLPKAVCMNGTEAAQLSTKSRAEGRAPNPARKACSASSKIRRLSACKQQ

[8] = molecular target: Homeodomain-interacting protein kinase 2 (Homo sapiens, UniProt Q9H2X6); test: Selectivity interaction (ProQinase) EUB0000171b HIPK2
Sequence of Homeodomain-interacting protein kinase 2 (Q9H2X6 whole entry, looked up): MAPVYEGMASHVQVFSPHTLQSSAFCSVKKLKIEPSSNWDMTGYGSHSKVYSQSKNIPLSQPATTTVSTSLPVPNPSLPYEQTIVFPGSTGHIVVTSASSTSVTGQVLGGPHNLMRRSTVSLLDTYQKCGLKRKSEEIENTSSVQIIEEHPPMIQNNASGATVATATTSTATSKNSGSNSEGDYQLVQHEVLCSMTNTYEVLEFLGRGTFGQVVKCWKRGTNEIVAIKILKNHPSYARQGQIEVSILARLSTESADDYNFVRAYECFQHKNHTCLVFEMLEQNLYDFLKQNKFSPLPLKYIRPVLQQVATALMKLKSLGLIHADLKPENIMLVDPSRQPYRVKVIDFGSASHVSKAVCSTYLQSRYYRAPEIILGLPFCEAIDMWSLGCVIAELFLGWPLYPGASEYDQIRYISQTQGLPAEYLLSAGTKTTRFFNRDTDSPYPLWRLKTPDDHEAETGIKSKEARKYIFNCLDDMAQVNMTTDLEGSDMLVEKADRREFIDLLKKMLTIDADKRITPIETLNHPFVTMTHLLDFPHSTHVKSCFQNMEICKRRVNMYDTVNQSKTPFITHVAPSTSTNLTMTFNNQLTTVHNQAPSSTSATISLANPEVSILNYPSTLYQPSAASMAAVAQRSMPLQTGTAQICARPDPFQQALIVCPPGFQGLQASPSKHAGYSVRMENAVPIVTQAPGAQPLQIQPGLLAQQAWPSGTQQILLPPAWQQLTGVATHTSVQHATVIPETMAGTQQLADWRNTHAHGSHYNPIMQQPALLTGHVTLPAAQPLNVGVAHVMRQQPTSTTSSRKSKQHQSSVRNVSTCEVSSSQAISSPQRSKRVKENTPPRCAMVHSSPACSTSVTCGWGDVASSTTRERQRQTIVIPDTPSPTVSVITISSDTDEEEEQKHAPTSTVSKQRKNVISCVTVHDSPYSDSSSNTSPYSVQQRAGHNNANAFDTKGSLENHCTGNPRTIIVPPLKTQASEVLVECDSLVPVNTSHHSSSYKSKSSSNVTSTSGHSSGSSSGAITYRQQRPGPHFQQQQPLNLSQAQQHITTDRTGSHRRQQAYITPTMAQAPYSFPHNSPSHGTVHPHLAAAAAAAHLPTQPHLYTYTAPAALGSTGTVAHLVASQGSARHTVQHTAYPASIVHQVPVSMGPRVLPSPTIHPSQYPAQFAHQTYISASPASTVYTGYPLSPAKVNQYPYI

Compound `COc1cc(Nc2nc(C)cc(-c3cnn4nc(OC)ccc34)n2)cc(C(F)(F)F)c1` has a % of control [1] of 100%.
In the case of `CCC(=O)N1CCN(c2ccc(-n3c(=O)ccc4cnc5ccc(-c6cnc7ccccc7c6)cc5c43)cc2C(F)(F)F)CC1`, the % of control [2] is reported as 100%.
Compound `Cc1cnc(Nc2ccc(F)cc2Cl)nc1-c1c[nH]c(C(=O)N[C@H](CO)c2cccc(Cl)c2)c1` has a % of inhibition [3] of 0%.
Compound `CN(C)C/C=C/C(=O)Nc1ccc(C(=O)N2CCCC(Nc3ncc(Cl)c(-c4c[nH]c5ccccc45)n3)C2)cc1` (centres undefined) has a % of control [4] of 98%.
`Cc1cc(F)c(C(=O)Nc2cccc(-c3nncn3C(C)C)n2)cc1-n1cnc(C2CC2)c1` gave a % of control [5] of 80%.
`CNC(=O)Nc1ccc(-c2nc(N3CC4CCC(C3)O4)c3cnn(C4CCC5(CC4)OCCO5)c3n2)cc1` showed a % of control [6] of 100% and a % of control [7] of 80%.
`C=CC(=O)Nc1cccc(C(=O)Nc2ccc(Nc3cc(-c4[nH]c(SC)nc4C)ccn3)cc2)c1` gave a % of control ([8]; at 1 µM) of 100% and a % of control ([8]; at 5 µM) of 87%.
